Assays:
barnyardgrass [1] = assay: Test A postemergence; type: in vivo, Echinochloa crus-galli; settings: 0 to 100 scale where 0 is no effect and 100 is complete control
Summary of the method: (§1)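 Pre- and postemergence greenhouse screen. Soil: loam + sand. Spray carrier: solvent mixture, non-phytotoxic, with surfactant. Post timing at 1–2 leaves, height 2–10 cm. Readout: visual injury on a 0–100 scale roughly 10 days after application, untreated plants as reference.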

large (Lg) crabgrass = assay: Test C postemergence; type: in vivo, Digitaria sanguinalis
Summary of the method: (§2)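 Whole-plant greenhouse test with surfactant-containing solvent formulation, applied preemergence to sown loam–sand pots or postemergence to 2–18 cm plants. Scored by eye 13 to 15 days on, 0–100 scale.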

barnyardgrass [2] = assay: Test C preemergence; type: in vivo, Echinochloa crus-galli; settings: for Barnyardgrass plant response rating: preemergence, scale 0 (no effect) to 100 (complete control)
Summary of the method: as §2

Italian ryegrass = assay: Test C preemergence; type: in vivo, Lolium multiflorum; settings: for Ryegrass, Italian plant response rating: preemergence, scale 0 (no effect) to 100 (complete control)
Summary of the method: as §2

giant foxtail = assay: Test A postemergence; type: in vivo, Setaria faberii; settings: 0 to 100 scale where 0 is no effect and 100 is complete control
Summary of the method: as §1

soybean = assay: Test C preemergence; type: in vivo, Glycine max; settings: for Soybean plant response rating: preemergence, scale 0 (no effect) to 100 (complete control)
Summary of the method: as §2

morningglory [3] = assay: Test C preemergence; type: in vivo, Ipomoea coccinea; settings: for Morningglory plant response rating: preemergence, scale 0 (no effect) to 100 (complete control)
Summary of the method: as §2

blackgrass [4] = assay: Test C preemergence; type: in vivo, Alopecurus myosuroides; settings: for Blackgrass plant response rating: preemergence, scale 0 (no effect) to 100 (complete control)
Summary of the method: as §2

wheat = assay: Test A postemergence; type: in vivo, Triticum aestivum; settings: 0 to 100 scale where 0 is no effect and 100 is complete control
Summary of the method: as §1

ragweed = assay: Test C preemergence; type: in vivo, Ambrosia elatior; settings: for Ragweed plant response rating: preemergence, scale 0 (no effect) to 100 (complete control)
Summary of the method: as §2

oilseed rape [5] = assay: Test C preemergence; type: in vivo, Brassica napus; settings: for Oilseed Rape plant response rating: preemergence, scale 0 (no effect) to 100 (complete control)
Summary of the method: as §2

morningglory [6] = assay: Test A preemergence; type: in vivo, Ipomoea spp.
Summary of the method: as §1

johnsongrass = assay: Test C preemergence; type: in vivo, Sorghum halepense; settings: for Johnsongrass plant response rating: preemergence, scale 0 (no effect) to 100 (complete control)
Summary of the method: as §2

blackgrass [7] = assay: Test C postemergence; type: in vivo, Alopecurus myosuroides
Summary of the method: as §2

yellow nutsedge = assay: Test C preemergence; type: in vivo, Cyperus esculentus; settings: for Nutsedge, Yellow plant response rating: preemergence, scale 0 (no effect) to 100 (complete control)
Summary of the method: as §2

oilseed rape [8] = assay: Test C postemergence; type: in vivo, Brassica napus
Summary of the method: as §2

[9] = 31 g ai/ha, postemergence, visual rating, scale 0 to 100 (0 no effect, 100 complete control), 13 to 15 days
[10] = 125 g ai/ha, postemergence, visual rating, scale 0 to 100 (0 no effect, 100 complete control)
[11] = Postemergence, 62 g ai/ha, scale 0 to 100 (0 no effect, 100 complete control), 13 to 15 days
[12] = Preemergence, 62 g ai/ha, scale 0 to 100, 0 no effect, 100 complete control

Structure (SMILES): N#Cc1cnn(-c2c(C#N)cccc2Oc2ncc(Cl)cn2)c1 [Compound 200]
- Barnyardgrass plant response rating (barnyardgrass [1]; 125 g ai/ha): 80
- Plant response rating, Barnyardgrass (barnyardgrass [1]; 500 g ai/ha): 90
- Crabgrass, Large plant response rating (large (Lg) crabgrass; [9]): 5
- Plant response rating, Crabgrass, Large (large (Lg) crabgrass; [10]): 15
- Plant response rating (0 to 100), Crabgrass, Large (large (Lg) crabgrass; 250 g ai/ha, postemergence): 20
- Plant response rating, Crabgrass, Large (large (Lg) crabgrass; [11]): 5
- Barnyardgrass plant response rating (barnyardgrass [2]; 125 g ai/ha): 100
- Barnyardgrass plant response rating (barnyardgrass [2]; 250 g ai/ha): 100
- Plant response rating, Barnyardgrass (barnyardgrass [2]; [12]): 100
- Ryegrass, Italian plant response rating (Italian ryegrass; 125 g ai/ha): 85
- Ryegrass, Italian plant response rating (Italian ryegrass; 250 g ai/ha): 95
- Plant response rating, Ryegrass, Italian (Italian ryegrass; [12]): 70
- Foxtail, Giant plant response rating (giant foxtail; 125 g ai/ha): 90
- Plant response rating, Foxtail, Giant (giant foxtail; 500 g ai/ha): 90
- Soybean plant response rating (soybean; 125 g ai/ha): 95
- Soybean plant response rating (soybean; 250 g ai/ha): 100
- Plant response rating, Soybean (soybean; [12]): 90
- Morningglory plant response rating (morningglory [3]; 125 g ai/ha): 98
- Morningglory plant response rating (morningglory [3]; 250 g ai/ha): 98
- Plant response rating, Morningglory (morningglory [3]; [12]): 95
- Blackgrass plant response rating (blackgrass [4]; 125 g ai/ha): 98
- Blackgrass plant response rating (blackgrass [4]; 250 g ai/ha): 98
- Plant response rating, Blackgrass (blackgrass [4]; [12]): 95
- Wheat plant response rating (wheat; 125 g ai/ha): 40
- Plant response rating, Wheat (wheat; 500 g ai/ha): 60
- Ragweed plant response rating (ragweed; 125 g ai/ha): 100
- Ragweed plant response rating (ragweed; 250 g ai/ha): 98
- Plant response rating, Ragweed (ragweed; [12]): 100
- Oilseed Rape plant response rating (oilseed rape [5]; 125 g ai/ha): 98
- Oilseed Rape plant response rating (oilseed rape [5]; 250 g ai/ha): 98
- Plant response rating, Oilseed Rape (oilseed rape [5]; [12]): 98
- Morningglory plant response rating (0 to 100 scale) (morningglory [6]; 125 g ai/ha): 90
- Morningglory plant response rating (morningglory [6]; 500 g ai/ha, 0 to 100 scale where 0 is no effect and 100 is complete control): 100
- Johnsongrass plant response rating (johnsongrass; 125 g ai/ha): 98
- Johnsongrass plant response rating (johnsongrass; 250 g ai/ha): 98
- Plant response rating, Johnsongrass (johnsongrass; [12]): 98
- Blackgrass plant response rating (blackgrass [7]; [9]): 5
- Plant response rating, Blackgrass (blackgrass [7]; [10]): 10
- Plant response rating (0 to 100), Blackgrass (blackgrass [7]; 250 g ai/ha, postemergence): 35
- Plant response rating, Blackgrass (blackgrass [7]; [11]): 5
- Nutsedge, Yellow plant response rating (yellow nutsedge; 125 g ai/ha): 90
- Nutsedge, Yellow plant response rating (yellow nutsedge; 250 g ai/ha): 95
- Plant response rating, Nutsedge, Yellow (yellow nutsedge; [12]): 40
- Oilseed Rape plant response rating (oilseed rape [8]; [9]): 55
- Plant response rating, Oilseed Rape (oilseed rape [8]; [10]): 50
- Plant response rating (0 to 100), Oilseed Rape (oilseed rape [8]; 250 g ai/ha, postemergence): 70
- Plant response rating, Oilseed Rape (oilseed rape [8]; [11]): 55

Reference: US9695155B2, “Herbicidal substituted pyrimidinyloxy benzene compounds” (E. I. DU PONT DE NEMOURS AND COMPANY, priority 2013, dated 2017)
